The values below come from patent US20220204439A1, “LIPIDS AND LIPID NANOPARTICLE FORMULATIONS FOR DELIVERY OF NUCLEIC ACIDS” (Acuitas Therapeutics, Inc., priority 2015, published 2022).

The subject of series [1] is luciferase expression in the liver. As to the kind of experiment: In vivo luciferase mRNA expression in mouse liver with lipid nanoparticle formulations. The settings on record: tail vein injection, liver 4 hours after administration, FLuc mRNA; for Liver Luc @ 0.3 mg/kg (ng luc/g liver) / Liver Luc @ 1.0 mg/kg (ng luc/g liver): LNP 50% cationic lipid/10% DSPC/38.5% cholesterol/1.5% PEG-DMA. Further details: species or system C57BL/6 mice. As for the experimental part: (§1) Cationic lipid (MC3), DSPC, cholesterol and PEG-lipid were solubilized in ethanol at a molar ratio of 50:10:38.5:1.5. Lipid nanoparticles (LNP) were prepared at a total lipid to mRNA weight ratio of approximately 10:1 to 30:1. Briefly, the mRNA was diluted to 0.2 mg/mL in 10 to 50 mM citrate buffer, pH 4. Syringe pumps were used to mix the ethanolic lipid solution with the mRNA aqueous solution at a ratio of about 1:5 to 1:3 (vol/vol) with total flow rates above 15 ml/min. The ethanol was then removed and the external buffer replaced with PBS by dialysis. Finally, the lipid nanoparticles were filtered through a 0.2 μm pore sterile filter. Lipid nanoparticle particle size was 70-90 nm diameter as determined by quasi-elastic light scattering using a Nicomp 370 submicron particle sizer (Santa Barbara, Calif.).
Studies were performed in 6-8 week old female C57BL/6 mice (Charles River) according to guidelines established by an institutional animal care committee (ACC) and the Canadian Council on Animal Care (CCAC). Varying doses of mRNA-lipid nanoparticle were systemically administered by tail vein injection and animals euthanized at specific time points (1, 2, 4, 8 and 24 hrs) post-administration. Liver and spleen were collected in pre-weighted tubes, weights determined, immediately snap frozen in liquid nitrogen and stored at −80° C. until processing for analysis.
For liver, approximately 50 mg was dissected for analyses in a 2 mL FastPrep tubes (MP Biomedicals, Solon Ohio). ¼″ ceramic sphere (MP Biomedicals) was added to each tube and 500 μL of Glo Lysis Buffer—GLB (Promega, Madison Wis.) equilibrated to room temperature was added to liver tissue. Liver tissues were homogenized with the FastPrep24 instrument (MP Biomedicals) at 2×6.0 m/s for 15 seconds. Homogenate was incubated at room temperature for 5 minutes prior to a 1:4 dilution in GLB and assessed using SteadyGlo Luciferase assay system (Promega). Specifically, 50 μL of diluted tissue homogenate was reacted with 50 μL of SteadyGlo substrate, shaken for 10 seconds followed by 5 minute incubation and then quantitated using a CentroXS^3 LB 960 luminometer (Berthold Technologies, Germany). The amount of protein assayed was determined by using the BCA protein assay kit (Pierce, Rockford Ill.). Relative luminescence units (RLU) were then normalized to total ug protein assayed. To convert RLU to ng luciferase a standard curve was generated with QuantiLum Recombinant Luciferase (Promega). Based in the data provided in FIG. 1, the four-hour time point was chosen for efficacy evaluation of the lipid formulations (see Example 29).
The FLuc mRNA (L-6107) from Trilink Biotechnologies will express a luciferase protein, originally isolated from the firefly, Photinus pyralis. FLuc is commonly used in mammalian cell culture to measure both gene expression and cell viability. It emits bioluminescence in the presence of the substrate, luciferin. This capped and polyadenylated mRNA is fully substituted with 5-methylcytidine and pseudouridine.
The cationic lipids shown in Table 2 have previously been tested with nucleic acids. For comparative purposes, these lipids were also used to formulate lipid nanoparticles containing the FLuc mRNA (L-6107) using an in line mixing method, as described in example 28 and in PCT/US10/22614, which is hereby incorporated by reference in its entirety. […] Relative activity was determined by measuring luciferase expression in the liver 4 hours following administration via tail vein injection as described in example 28. The activity was compared at a dose of 0.3 and 1.0 mg mRNA/kg and expressed as ng luciferase/g liver measured 4 hours after administration, as described in Example 28. […]

Series [2] in a line: pKa of formulated cationic lipids in lipid nanoparticles (TNS fluorescence assay). Type of series: physicochemical. The settings on record: probe 2-(p-toluidino)-6-napthalene sulfonic acid (TNS), 1 µM final; formulated in LNP cationic lipid/DSPC/cholesterol/PEG-lipid 50/10/38.5/1.5 mol %; pH of half-maximal TNS fluorescence. As for the experimental part: As described elsewhere, the pKa of formulated cationic lipids is correlated with the effectiveness of LNPs for delivery of nucleic acids (see Jayaraman et al, Angewandte Chemie, International Edition (2012), 51(34), 8529-8533; Semple et al, Nature Biotechnology 28, 172-176 (2010)). The preferred range of pKa is ˜5 to ˜7. […] Lipid nanoparticles comprising of cationic lipid/DSPC/cholesterol/PEG-lipid (50/10/38.5/1.5 mol %) in PBS at a concentration of 0.4 mM total lipid are prepared using the in-line process as described in Example 28. TNS was prepared as a 100 μM stock solution in distilled water. Vesicles were diluted to 24 μM lipid in 2 mL of buffered solutions containing, 10 mM HEPES, 10 mM MES, 10 mM ammonium acetate, 130 mM NaCl, where the pH ranged from 2.5 to 11. An aliquot of the TNS solution was added to give a final concentration of 1 μM and following vortex mixing fluorescence intensity was measured at room temperature in a SLM Aminco Series 2 Luminescence Spectrophotometer using excitation and emission wavelengths of 321 nm and 445 nm. A sigmoidal best fit analysis was applied to the fluorescence data and the pKa was measured as the pH giving rise to half-maximal fluorescence intensity (see FIG. 2).

Series [3] is described as follows: Lipid nanoparticle particle size by quasi-elastic light scattering. Type of series: physicochemical. Particulars: MC3/DSPC/cholesterol/PEG-lipid 50:10:38.5:1.5 LNP with mRNA, Nicomp 370. The method, then: as §1

The pKa is the negative logarithm of the acid dissociation constant. For `CCCCCCCC(=O)N(CCCN1CCCC1)C(CCCCCCCCC(=O)OCC(CCCC)CCCCCC)CCCCCCCCC(=O)OCC(CCCC)CCCCCC` (centres unmarked) [Compound 14], the “Liver Luc @ 0.3 mg/kg (ng luc/g liver)” value in series [1] (0.3 mg mRNA/kg) stood at 2851 ± 438 ng luc/g liver. The “Liver Luc @ 1.0 mg/kg (ng luc/g liver)” value in series [1] (1.0 mg mRNA/kg) is recorded as 15445 ± 3693 ng luc/g liver. Besides, the pKa in series [2] came to 6.33.
For the molecule `CCCCC/C=C\C/C=C\CCCCCCCCC(CCCCCCCC/C=C\C/C=C\CCCCC)N(CCCN(C)C)C(=O)C(CCCCCC)CCCCCCCC` (centres unmarked) [Compound 8], in series [1] (0.3 mg mRNA/kg), the “Liver Luc @ 0.3 mg/kg (ng luc/g liver)” value is on record as 105 ± 98 ng luc/g liver. In series [1] (1.0 mg mRNA/kg), the “Liver Luc @ 1.0 mg/kg (ng luc/g liver)” value turned out to be 1238 ± 153 ng luc/g liver. The pKa in series [2] came to 5.35.
For `CCCCCCCCC(CCCCCC)COC(=O)CCCCCC(CCCCCC(=O)OCC(CCCCCC)CCCCCCCC)N(CCCN(C)C)C(=O)CCCCCCC` (centres unmarked) [Compound 39], in that order: 779 ± 82 ng luc/g liver, 5180 ± 2116 ng luc/g liver and 6.45.
For `CCCCC/C=C\C/C=C\CCCCCCCCC(CCCCCCCC/C=C\C/C=C\CCCCC)N(C)CCN(C)C` [B, reference compound] the same measures were 95 ± 41 ng luc/g liver, 1131 ± 384 ng luc/g liver and 6.17.
For `CCCCCC(CCCC)OC(=O)CCCCCCCC(=O)N(CCCN(C)C)C(CCCCCCCCC(=O)OC(CCCC)CCCC)CCCCCCCCC(=O)OC(CCCC)CCCC` (centres unmarked) [Compound 24], in that order: 1120 ± 376 ng luc/g liver, 7425 ± 2810 ng luc/g liver and 6.14.
`CCCCC/C=C\C/C=C\CCCCCCCCC(CCCCCCCC/C=C\C/C=C\CCCCC)N(CC)CCCN(C)C` [C, reference compound]: the “Liver Luc @ 0.3 mg/kg (ng luc/g liver)” value in series [1] (0.3 mg mRNA/kg) is recorded as 24 ± 4 ng luc/g liver. Besides, the “Liver Luc @ 1.0 mg/kg (ng luc/g liver)” value in series [1] (1.0 mg mRNA/kg) came out at 77 ± 19 ng luc/g liver. The pKa in series [2] amounted to 6.36.
For `CCCCC/C=C\C/C=C\CCCCCCCCC(CCCCCCCC/C=C\C/C=C\CCCCC)N(CCCCCCCCC)CCCN(C)C` [Compound 1] the same measures were 54 ± 8 ng luc/g liver, 226 ± 20 ng luc/g liver and 5.64.
In the case of `CCCCC/C=C\C/C=C\CCCCCCCCC(CCCCCCCC/C=C\C/C=C\CCCCC)OC(=O)CCCN(C)C` [MC3, reference compound], in series [1] (0.3 mg mRNA/kg), the “Liver Luc @ 0.3 mg/kg (ng luc/g liver)” value amounted to 603 ± 150 ng luc/g liver. For the same molecule, in series [1] (0.3 mg mRNA/kg, LNP 50% cationic lipid/10% DSPC/38.5% cholesterol/1.5% PEG-DMG), the “Liver Luc @ 0.3 mg/kg dose” value is recorded as 198 ± 126 ng luciferase/g liver. Further, the “Liver Luc @ 1.0 mg/kg (ng luc/g liver)” value in series [1] (1.0 mg mRNA/kg) worked out at 2876 ± 622 ng luc/g liver. Besides, in series [1] (1.0 mg mRNA/kg, LNP 50% cationic lipid/10% DSPC/38.5% cholesterol/1.5% PEG-DMG), the “Liver Luc @ 1.0 mg/kg dose” value was determined as 757 ± 528 ng luciferase/g liver. The “Lipid nanoparticle particle size (diameter)” value in series [3] is given as 70-90 nm.
For `CCCCCCCCC(CCCCCC)COC(=O)CCCCCCCCC(CCCCCCCCC(=O)OCC(CCCCCC)CCCCCCCC)N(CCCN(C)C)C(=O)CCCCCCC` (centres unmarked) [Compound 12], the “Liver Luc @ 0.3 mg/kg (ng luc/g liver)” value in series [1] (0.3 mg mRNA/kg) was determined as 3336 ± 1394 ng luc/g liver. The “Liver Luc @ 1.0 mg/kg (ng luc/g liver)” value in series [1] (1.0 mg mRNA/kg) was 13577 ± 1948 ng luc/g liver. In series [2], this molecule had a pKa of 6.21.
Turning to `CCCCCCCCC(=O)N(CCCN(C)C)C(CCCCCCCCCOC(=O)C(CCCC)CCCCCC)CCCCCCCCCOC(=O)C(CCCC)CCCCCC` (centres unmarked) [Compound 17], in series [1] (0.3 mg mRNA/kg), the “Liver Luc @ 0.3 mg/kg (ng luc/g liver)” value stood at 837 ± 260 ng luc/g liver. Moreover, the “Liver Luc @ 1.0 mg/kg (ng luc/g liver)” value in series [1] (1.0 mg mRNA/kg) is 6703 ± 689 ng luc/g liver. Also, in series [2], the pKa came to 6.29.
For `CCCCCCCCC(=O)N(CCCN(C)C)C(CCCCCCCCC(=O)OCC(CCCC)CCCCCC)CCCCCCCCC(=O)OCC(CCCC)CCCCCC` (centres unmarked) [Compound 9], in that order: 2381 ± 1162 ng luc/g liver, 17157 ± 2470 ng luc/g liver and 6.27.
